According to patent publication US9079913B2, “Spiro-oxindole MDM2 antagonists” (The Regents of the University of Michigan, priority 2009, dated 2015):
Values joined by “and” are separate entries in the source; they are usually repeats but may differ in a detail not shown here. Equal values may be shown once.

What was measured:
[1] = Pharmacokinetic studies in rats; type: in vivo, rat
Procedure: Pharmacokinetic studies on MDM2 inhibitors were carried out in rat. For comparison, the MDM2 inhibitor, AT-219, was also studied.

[2] = Pharmacokinetic studies in Beagle dogs; type: in vivo
[3] = system: SJSA-1 xenograft tumors; test: In vivo efficacy, SJSA-1 xenograft model (tumor volume); set-up: species or system C.B-17 SCID mice; conditions: PO 300 mg/kg
Procedure: SJSA-1 tumor cells were harvested with Trypsin (0.05%)-EDTA (0.53 mM) (GIBCO™, Invitrogen Corp.), growth medium added and cells placed on ice. A cell sample was mixed 1:1 with Trypan Blue (GIBCO™, Invitrogen Corp.) and counted on a hemocytometer to determine the number of live/dead cells. Cells were washed once with 1×PBS (GIBCO™, Invitrogen Corp.) and resuspended in PBS. For Matrigel injections, after washing in PBS, cells are resuspended in an ice cold mixture of 1:1 PBS and Matrigel (BD Biosciences, Invitrogen Corp.) for a final Matrigel protein concentration of 5 mg/ml. SJSA-1 tumors were inoculated into C.B-17 SCID mice at 5×10^6 cells in 0.1 ml with Matrigel. Cells were injected s.c. into the flank region of each mouse using a 27 gauge needle.
The size of tumors growing in the mice was measured in two dimensions using calipers. Tumor volume (mm^3)=(A×B2)/2 where A and B are the tumor length and width (in mm), respectively. During treatment, tumor volume and body weight was measured three times a week. […] Mice were kept for an additional 60 days for further observation of tumor growth and toxicity.
Mice with tumors within acceptable size range were randomized into treatment groups of 8 mice for experimental compounds and 10 mice for the Control group. Experimental compounds were given orally, once per day for 2-3 weeks.

[4] = system: SJSA-1 xenograft tumors; conditions: mice bearing SJSA-1 xenograft, oral 200-300 mg/kg daily or twice a day, 2 weeks; cited from earlier work
[5] = system: LnCAP human xenograft tumors; conditions: mice bearing LnCAP xenograft, oral 200-300 mg/kg daily or twice a day, 2 weeks; cited from earlier work
[6] = rats, IV 5 mg/kg, animals and MEAN
[7] = rats, IV 5 mg/kg, animals and MEAN, mean
[8] = rats, PO 25 mg/kg, animals and MEAN

MI-219
T1/2 ([1]; male rats, oral dose 25 mg/kg): 1.4 ± 0.1 h
oral bioavailability / oral pharmacokinetics in rats (in words) ([1]; oral dosing, rats): orally bioavailable
AUC(0-t) [1, 6]: 2318.88 ng·h/mL and 2379.54 ng·h/mL
AUC(0-∞) [1, 6]: 2319.77 ng·h/mL and 2379.62 ng·h/mL
CLz [1, 6]: 36 mL/min/kg and 35 mL/min/kg
Cmax [1, 6]: 5229.30 ng/mL and 5873.30 ng/mL
MRT(0-∞) [1, 6]: 1.51 h and 1.26 h
T1/2 [1, 6]: 2.54 h and 1.86 h
Vz [1, 6]: 7.90 L/kg and 5.62 L/kg
AUC(0-t) [1, 7]: 2349.21 ng·h/mL
AUC(0-∞) [1, 7]: 2349.69 ng·h/mL
CLz [1, 7]: 35.5 mL/min/kg
Cmax [1, 7]: 5551.30 ng/mL
MRT(0-∞) [1, 7]: 1.38 h
T1/2 [1, 7]: 2.20 h
Vz [1, 7]: 6.76 L/kg
F ([1]; rats, PO 25 mg/kg vs IV 5 mg/kg, animals and MEAN): 65.45±2.77% and 62.81% and 65.22% and 68.34% and 65.45%
AUC(0-t) [1, 8]: 7378.78 ng·h/mL and 7623.45 ng·h/mL and 8028.71 ng·h/mL
AUC(0-∞) [1, 8]: 7689.94 ± 325.86 ng·h/mL and 7378.81 ng·h/mL and 7662.25 ng·h/mL and 8028.76 ng·h/mL and 7689.94 ng·h/mL
Cmax [1, 8]: 3332.19 ng/mL and 2957.44 ng/mL and 4965.7 ng/mL and 3751.78 ng/mL
MRT(0-∞) [1, 8]: 2.64 h and 2.67 h and 2.62 h
T1/2 [1, 8]: 1.36 h and 1.54 h and 1.40 h and 1.43 h
AUC(0-t) ([1]; rats, PO 25 mg/kg, animals and MEAN, mean): 7676.98 ng·h/mL
oral bioavailability in dogs (in words) [2]: orally bioavailable
AUC ([2]; 10 mg/kg oral dosing): 7947 ± 2396 ng·h/mL
MRT ([2]; IV 2.0 mg/kg): 1.22 h and 1.81 h and 1.87 h
Plasma Concentration ([2]; IV 2.0 mg/kg, 0.117 h, dogs and Mean): 4069 ng/mL and 7668 ng/mL
Plasma Concentration ([2]; IV 2.0 mg/kg, 0.117 h, dogs and Mean, mean): 5868 ng/mL
Plasma Concentration ([2]; IV 2.0 mg/kg, 0.20 h): 2623 ng/mL and 2272 ng/mL and 3918 ng/mL
Plasma Concentration ([2]; IV 2.0 mg/kg, 0.20 h, mean): 2938 ng/mL
Plasma Concentration ([2]; IV 2.0 mg/kg, 0.5 h): 1888 ng/mL and 1192 ng/mL and 1795 ng/mL
Plasma Concentration ([2]; IV 2.0 mg/kg, 0.5 h, mean): 1625 ng/mL
Plasma Concentration ([2]; IV 2.0 mg/kg, 1.0 h): 853 ng/mL and 704 ng/mL and 1044 ng/mL
Plasma Concentration ([2]; IV 2.0 mg/kg, 1.0 h, mean): 867 ng/mL
Plasma Concentration ([2]; IV 2.0 mg/kg, 3.0 h): 331 ng/mL and 402 ng/mL
Plasma Concentration ([2]; IV 2.0 mg/kg, 3.0 h, mean): 367 ng/mL
Plasma Concentration ([2]; IV 2.0 mg/kg, 4.0 h): 256 ng/mL and 188 ng/mL and 248 ng/mL
Plasma Concentration ([2]; IV 2.0 mg/kg, 4.0 h, mean): 231 ng/mL
Plasma Concentration ([2]; IV 2.0 mg/kg, 6.0 h): 114.3 ng/mL and 81.1 ng/mL and 119 ng/mL
Plasma Concentration ([2]; IV 2.0 mg/kg, 6.0 h, mean): 105 ng/mL
Plasma Concentration ([2]; IV 2.0 mg/kg, 8.0 h): 52.2 ng/mL and 39.7 ng/mL and 57.8 ng/mL
Plasma Concentration ([2]; IV 2.0 mg/kg, 8.0 h, mean): 49.9 ng/mL
Plasma Concentration ([2]; IV 2.0 mg/kg, 12 h): 17.9 ng/mL and 9.75 ng/mL and 19.4 ng/mL
Plasma Concentration ([2]; IV 2.0 mg/kg, 12 h, mean): 15.7 ng/mL
T½ ([2]; IV 2.0 mg/kg, dogs and Mean): 4.32 h and 3.00 h and 4.36 h
T½ ([2]; IV 2.0 mg/kg, dogs and Mean, mean): 3.90 h
MRT ([2]; IV 2.0 mg/kg, mean): 1.63 h
AUC(0-t) ([2]; PO 10 mg/kg): 9665 ng·h/mL and 5210 ng·h/mL and 8967 ng·h/mL
AUC(0-∞) ([2]; PO 10 mg/kg): 9681 ng·h/mL and 5226 ng·h/mL and 8985 ng·h/mL
Cmax ([2]; PO 10 mg/kg): 3001 ng/mL and 3560 ng/mL and 2119 ng/mL and 3323 ng/mL
F ([2]; PO 10 mg/kg): 26.1% and 26.8% and 28.6%
MRT ([2]; PO 10 mg/kg): 3.09 h and 2.71 h and 3.33 h
Tmax ([2]; PO 10 mg/kg): 0.83 h and 1.0 h and 0.5 h
Plasma Concentration ([2]; PO 10 mg/kg, 0.5 h, dogs and Mean): 2101 ng/mL and 1842 ng/mL and 3323 ng/mL
Plasma Concentration ([2]; PO 10 mg/kg, 0.5 h, dogs and Mean, mean): 2422 ng/mL
Plasma Concentration ([2]; PO 10 mg/kg, 1 h): 3560 ng/mL and 2119 ng/mL and 2999 ng/mL
Plasma Concentration ([2]; PO 10 mg/kg, 1 h, mean): 2893 ng/mL
Plasma Concentration ([2]; PO 10 mg/kg, 4 h): 483 ng/mL and 603 ng/mL and 312 ng/mL and 535 ng/mL
Plasma Concentration ([2]; PO 10 mg/kg, 24 h): 4.05 ng/mL and 3.78 ng/mL and 4.48 ng/mL
Plasma Concentration ([2]; PO 10 mg/kg, 24 h, mean): 4.10 ng/mL
T½ ([2]; PO 10 mg/kg, dogs and Mean): 2.77 h and 3.03 h and 2.81 h
T½ ([2]; PO 10 mg/kg, dogs and Mean, mean): 2.87 h
AUC(0-t) ([2]; PO 10 mg/kg, mean): 7947 ng·h/mL
AUC(0-∞) ([2]; PO 10 mg/kg, mean): 7964 ng·h/mL
MRT ([2]; PO 10 mg/kg, mean): 3.04 h
% Tumor Growth Inhib. T/C Control 750 mm^3 D27 ([3]; Exp. No. 1, SJSA-1 xenograft, D27): 44.3%
% Tumor Growth Inhib. T/C Control 750 mm^3 D24 ([3]; Exp. No. 2, SJSA-1 xenograft, D24): 30.1%
% Tumor Growth Inhib. T/C Control 750 mm^3 D29 ([3]; Exp. No. 3, SJSA-1 xenograft, D29): 15.8%
tumor growth inhibition (in words) [4]: effective tumor growth inhibition
tumor growth inhibition (in words) [5]: effective tumor growth inhibition
